Data taken from patent publication US10385065B2, “Antibacterial compounds” (priority 2014, dated 2019).
≈ marks a conversion by molar mass, not a printed value. Where two headings read alike, the source gives them in different places.

Assays:
[1] = test system: human hepatic cell line (HepG2 ATCC HB-8065); assay: Human cell viability assay (CellTiter-Glo), HepG2; assay type: cell-based; conditions: HepG2, 24 h incubation, tested over 1-128 μg/mL, read-out: IC50 values against HepG2
Outline: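 HepG2 seeded at 20,000 cells/well, then after 24 h given two-fold serial dilutions (1-128 μg/mL, 1% DMSO) in DMEM with 0.001% FBS and 0.3% albumin. After 24 h at 37 °C, ATP luminescence (CellTiter-Glo) read; IC50 is the concentration halving viability.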

[2] = test system: S. aureus NRS127 MRSA LZD resistant; assay: MIC, S. aureus NRS127; assay type: cell-based; conditions: Staphylococcus aureus; Table 2
[3] = test system: S. aureus SACPX1-SP25 MSSA - FQ resistant; assay: microbe, parasite or virus in culture; assay type: cell-based; conditions: Staphylococcus aureus, ATCC 29213 / MSSA, read-out: MIC S. aureus SACPX1-SP25 MSSA - FQ resistant (isogenic mutant of ATCC 29213)
S. aureus NRS1 MRSA = assay: MIC, S. aureus NRS1; assay type: cell-based; conditions: Staphylococcus aureus; Table 2; read-out: MIC S. aureus NRS1 MRSA AMG & TET resistant
[4] = test system: S. aureus NRS107 MUP resistant; assay: MIC, S. aureus NRS107; assay type: cell-based; conditions: Staphylococcus aureus, Table 2
[5] = test system: Streptococcus pneumoniae ATCC BAA-255; assay: MIC, S. pneumoniae ATCC BAA-255; assay type: cell-based; conditions: ATCCBAA255, Table 2
[6] = test system: Enterococcus faecium ATCC 19434; assay: MIC, E. faecium ATCC 19434; assay type: cell-based; conditions: ATCC19434, Table 2
[7] = test system: S. epidermidis NRS101 MRSE; assay: MIC, S. epidermidis NRS101; assay type: cell-based; conditions: Staphylococcus epidermidis; Table 2; read-out: MIC S. epidermidis NRS101 MRSE AMG, ERY resistant
S. aureus NRS100 MRSA = assay: MIC, S. aureus NRS100; assay type: cell-based; conditions: Staphylococcus aureus; Table 2
[8] = test system: S. aureus VRS1 MRSA VAN resistant; assay: MIC, S. aureus VRS1; assay type: cell-based; conditions: Staphylococcus aureus, Table 2
[9] = test system: S. aureus (MRSA) ATCC 43300; assay: MIC, S. aureus ATCC 43300; assay type: cell-based; conditions: Staphylococcus aureus; Table 2; read-out: MIC S. aureus (MRSA) ATCC 43300 Heterogeneous MRSA strain
[10] = test system: Staphylococcus aureus ATCC 29213; assay: MIC, broth microdilution, S. aureus ATCC 29213; assay type: cell-based
[11] = test system: Neisseria meningitidis ATCC 13090; assay: MIC, N. meningitidis ATCC 13090; assay type: cell-based; conditions: ATCC13090, Table 4, 24 h incubation
[12] = test system: S. aureus NRS482 MRSA FQ resistant; assay: MIC, S. aureus NRS482; assay type: cell-based; conditions: Staphylococcus aureus; Table 2
[13] = test system: Escherichia coli ATCC 25922; assay: MIC, broth microdilution, E. coli ATCC 25922; assay type: cell-based; conditions: ATCC25922, Table 1, wild type strain
[14] = test system: Neisseria gonorrhoeae ATCC 49226; assay: MIC, N. gonorrhoeae ATCC 49226; assay type: cell-based; conditions: ATCC49226, Table 4, 24 h incubation
[15] = test system: Legionella pneumophila ATCC 33152; assay: microbe, parasite or virus in culture; assay type: cell-based; conditions: ATCC33152, 48 h, read-out: MIC Legionella pneumophila ATCC 33152
S. aureus NRS70 MRSA = assay: MIC, S. aureus NRS70; assay type: cell-based; conditions: Staphylococcus aureus; Table 2
[16] = test system: Moraxella catarrhalis ATCC 25240; assay: MIC, M. catarrhalis ATCC 25240; assay type: cell-based; conditions: ATCC25240, Table 4
[17] = test system: Haemophilus influenzae ATCC 49247; assay: MIC, H. influenzae ATCC 49247; assay type: cell-based; conditions: ATCC49247, Table 4
[18] = test system: Mycobacterium smegmatis ATCC 19420; assay: MIC, M. smegmatis ATCC 19420; assay type: cell-based; conditions: Mycolicibacterium smegmatis, ATCC19420; Table 4, 72 h incubation
[19] = test system: S. aureus NRS106 (fluoroquinolone susceptible MSSA); assay: MIC, S. aureus NRS106; assay type: cell-based; conditions: Staphylococcus aureus
[20] = test system: all strains of S. aureus tested; assay: Antibacterial susceptibility, all S. aureus strains tested; assay type: cell-based, Staphylococcus aureus; conditions: including strains resistant to fluoroquinolone and other antibiotics
S. aureus NRS108 = assay: MIC, S. aureus NRS108; assay type: cell-based; conditions: Staphylococcus aureus, MRSA / NRS 108, read-out: MIC S. aureus NRS108
[21] = test system: Mycobacterium tuberculosis H37Rv; assay: MIC, M. tuberculosis H37Rv; assay type: cell-based; conditions: virulent tuberculosis-causative strain
[22] = test system: S. aureus NRS384 (MRSA - fluoroquinolone susceptible); assay: MIC, S. aureus NRS384; assay type: cell-based; conditions: Staphylococcus aureus, read-out: MIC S. aureus NRS384
S. aureus VRS8 = assay: MIC, S. aureus VRS8; assay type: cell-based; conditions: Staphylococcus aureus, MRSA, read-out: MIC S. aureus VRS8
S. aureus NRS271 = assay: MIC, S. aureus NRS271; assay type: cell-based; conditions: Staphylococcus aureus, MRSA / NRS 271, read-out: MIC S. aureus NRS271
[23] = test system: S. aureus SACPX1-SP28 (MSSA - fluoroquinolone resistant); assay: MIC, S. aureus SACPX1-SP28; assay type: cell-based; conditions: Staphylococcus aureus, read-out: MIC S. aureus SACPX1-SP28
S. aureus NRS74 = assay: MIC, S. aureus NRS74; assay type: cell-based; conditions: Staphylococcus aureus, MRSA / NRS 74, read-out: MIC S. aureus NRS74
[24] = ATCC29213, Table 1, wild type strain, read-out: MIC S. aureus ATCC 29213
[25] = ATCC 29213 / MSSA, Table 2, read-out: MIC S. aureus (MSSA) ATCC 29213 CLSI control strain

Row | Compound | IC50 [1] [µg/mL] | MIC [2] [µg/mL] | MIC [3] [µg/mL] | MIC (S. aureus NRS1 MRSA) [µg/mL] | MIC [4] [µg/mL] | MIC [6] [µg/mL] | MIC [7] [µg/mL] | MIC (S. aureus NRS100 MRSA) [µg/mL] | MIC [8] [µg/mL] | MIC [9] [µg/mL] | MIC [10, 24] [µg/mL] | MIC [10, 25] [µg/mL] | MIC [11] [µg/mL] | MIC [12] [µg/mL] | MIC [13] [µg/mL] | MIC [14] [µg/mL] | MIC [15] [µg/mL] | MIC (S. aureus NRS70 MRSA) [µg/mL] | MIC [16] [µg/mL] | MIC [17] [µg/mL] | further results
1 | Cc1nc2c(=O)n(C3CC3)c3c(C)c(-c4ccc(CN)c(F)c4)ccc3c2o1 [Compound 36, 7-[4-(aminomethyl)-3-fluoro-phenyl]-5-cyclopropyl-2,6-dimethyl-oxazolo[4,5-c]quinolin-4-one] | > 100 | 1 to 10 (≈ 2.65 to 26.5 µM) | 1 to 10 (≈ 2.65 to 26.5 µM) | > 100 | 1 to 10 (≈ 2.65 to 26.5 µM) | 10 to 100 (≈ 26.5 to 265 µM) | 10 to 100 (≈ 26.5 to 265 µM) | 1 to 10 (≈ 2.65 to 26.5 µM) | 10 to 100 (≈ 26.5 to 265 µM) | < 1 | < 1 | < 1 | < 1 | 1 to 10 (≈ 2.65 to 26.5 µM) | 1 to 10 (≈ 2.65 to 26.5 µM) | 10 to 100 (≈ 26.5 to 265 µM) | < 1 | < 1 | 1 to 10 (≈ 2.65 to 26.5 µM) | 1 to 10 (≈ 2.65 to 26.5 µM) | MIC [5]: 1 to 10 µg/mL (≈ 2.65 to 26.5 µM)
2 | Cc1onc(-c2ccccc2)c1C(=O)N[C@@H]1C(=O)N2[C@@H]1SC(C)(C)[C@@H]2C(=O)O [Oxacillin, reference compound] | 10 to 100 (≈ 24.9 to 249 µM) | < 1 | 1 to 10 (≈ 2.49 to 24.9 µM) | > 100 | < 1 | 10 to 100 (≈ 24.9 to 249 µM) | 1 to 10 (≈ 2.49 to 24.9 µM) | > 100 | < 1 | < 1 | – | < 1 | – | – | – | – | – | 10 to 100 (≈ 24.9 to 249 µM) | – | > 100 | –
3 | Cc1c(-c2cc(F)c(N)cc2F)ccc2c3oc(CN)nc3c(=O)n(C3CC3)c12 [Compound 100, 7-(4-amino-2,5-difluoro-phenyl)-2-(aminomethyl)-5-cyclopropyl-6-methyl-oxazolo[4,5-c]quinolin-4-one] | > 100 | 1 to 10 (≈ 2.52 to 25.2 µM) | < 1 | < 1 | – | 1 to 10 (≈ 2.52 to 25.2 µM) | < 1 | – | 1 to 10 (≈ 2.52 to 25.2 µM) | < 1 | < 1 | < 1 | < 1 | < 1 | < 1 | < 1 | < 1 | – | < 1 | < 1 | –
4 | Cc1nc2c(=O)n(C3CC3)c3cc(N4CCC(CN)C4)c(F)cc3c2o1 (centres unmarked) [Compound 57, 7-[3-(aminomethyl)pyrrolidin-1-yl]-5-cyclopropyl-8-fluoro-2-methyl-oxazolo[4,5-c]quinolin-4-one] | 10 to 100 (≈ 28.1 to 281 µM) | – | 1 to 10 (≈ 2.81 to 28.1 µM) | 1 to 10 (≈ 2.81 to 28.1 µM) | – | 10 to 100 (≈ 28.1 to 281 µM) | – | – | – | – | < 1 | < 1 | 1 to 10 (≈ 2.81 to 28.1 µM) | 1 to 10 (≈ 2.81 to 28.1 µM) | 1 to 10 (≈ 2.81 to 28.1 µM) | – | – | – | – | 1 to 10 (≈ 2.81 to 28.1 µM) | –
5 | Cc1c(-c2cc(F)c(N)cc2F)ccc2c3ocnc3c(=O)n(C3CC3)c12 [Compound 1, 7-(4-amino-2,5-difluoro-phenyl)-5-cyclopropyl-6-methyl-oxazolo[4,5-c]quinolin-4-one] | > 100 | < 1 | – | < 1 | < 1 | > 100 | < 1 | < 1 | < 1 | < 1 | < 1 | < 1 | < 1 | < 1 | > 100 | < 1 | < 1 | < 1 | < 1 | < 1 | MIC [18]: < 1 µg/mL; MIC [19]: < 1 µg/mL; MIC ([3]; Table 2): < 1 µg/mL; activity against all strains of S. aureus tested [20]: excellent activity; MIC [5]: 1 to 10 µg/mL (≈ 2.72 to 27.2 µM); MIC (S. aureus NRS108): < 1 µg/mL; MIC [21]: < 8 µg/mL; MIC [22]: < 1 µg/mL; MIC (S. aureus VRS8): < 1 µg/mL; MIC (S. aureus NRS271): < 1 µg/mL; MIC [23]: < 1 µg/mL; MIC (S. aureus NRS74): < 1 µg/mL
